Assay results reported in patent publication US8192962B2, “Processes for detecting toxic substances” (Daikin Industries, Ltd., priority 2001, dated 2012).

Test system: Mitochondria-located protein genes
Test: DNA chip mRNA expression in yeast, mitochondria-located protein genes (Table 2)
Format: cell-based, Saccharomyces cerevisiae S288C
Settings: cells incubated two hours with the chemical substance
Outline: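 Values are treated/untreated fluorescence ratios from a whole-genome yeast DNA chip hybridized over 12 hours at 65° C with Cy3- or Cy5-labelled cDNA from poly(A) mRNA. Log-phase S288C yeast in YPD at 25° C had received a single toxic chemical for two hours, dosed to slow growth without killing.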

[Cl][Hg][Cl] [(3), HgCl2]
The level of expressed mRNA in the presence of chemical substance/The level of expressed mRNA in the absence of chemical substance (yeast gene YJR121W): 3.3 | The level of expressed mRNA in the presence of chemical substance/The level of expressed mRNA in the absence of chemical substance (yeast gene YKL003C): 0.8 | The level of expressed mRNA in the presence of chemical substance/The level of expressed mRNA in the absence of chemical substance (yeast gene YKL016C): 0.7 | The level of expressed mRNA in the presence of chemical substance/The level of expressed mRNA in the absence of chemical substance (yeast gene YKL141W): 4.7 | The level of expressed mRNA in the presence of chemical substance/The level of expressed mRNA in the absence of chemical substance (yeast gene YKL142W): 3.1 | The level of expressed mRNA in the presence of chemical substance/The level of expressed mRNA in the absence of chemical substance (yeast gene YKL148C): 3.7 | The level of expressed mRNA in the presence of chemical substance/The level of expressed mRNA in the absence of chemical substance (yeast gene YKL170W): 0.5 | The level of expressed mRNA in the presence of chemical substance/The level of expressed mRNA in the absence of chemical substance (yeast gene YKL194C): 0.8 | The level of expressed mRNA in the presence of chemical substance/The level of expressed mRNA in the absence of chemical substance (yeast gene YKR066C): 5.5 | The level of expressed mRNA in the presence of chemical substance/The level of expressed mRNA in the absence of chemical substance (yeast gene YLL041C): 4.6 | The level of expressed mRNA in the presence of chemical substance/The level of expressed mRNA in the absence of chemical substance (yeast gene YLR038C): 0.6 | The level of expressed mRNA in the presence of chemical substance/The level of expressed mRNA in the absence of chemical substance (yeast gene YLR259C): 3.1 | The level of expressed mRNA in the presence of chemical substance/The level of expressed mRNA in the absence of chemical substance (yeast gene YLR295C): 1.1 | The level of expressed mRNA in the presence of chemical substance/The level of expressed mRNA in the absence of chemical substance (yeast gene YLR304C): 5.0 | The level of expressed mRNA in the presence of chemical substance/The level of expressed mRNA in the absence of chemical substance (yeast gene YLR348C): 1.2 | The level of expressed mRNA in the presence of chemical substance/The level of expressed mRNA in the absence of chemical substance (yeast gene YLR395C): 2.2 | The level of expressed mRNA in the presence of chemical substance/The level of expressed mRNA in the absence of chemical substance (yeast gene YML054C): 1.3 | The level of expressed mRNA in the presence of chemical substance/The level of expressed mRNA in the absence of chemical substance (yeast gene YML120C): 1.9 | The level of expressed mRNA in the presence of chemical substance/The level of expressed mRNA in the absence of chemical substance (yeast gene YML129C): 0.9 | The level of expressed mRNA in the presence of chemical substance/The level of expressed mRNA in the absence of chemical substance (yeast gene YMR023C): 0.5 | The level of expressed mRNA in the presence of chemical substance/The level of expressed mRNA in the absence of chemical substance (yeast gene YMR035W): 1.5 | The level of expressed mRNA in the presence of chemical substance/The level of expressed mRNA in the absence of chemical substance (yeast gene YMR083W): 2.6 | The level of expressed mRNA in the presence of chemical substance/The level of expressed mRNA in the absence of chemical substance (yeast gene YMR089C): 0.9 | The level of expressed mRNA in the presence of chemical substance/The level of expressed mRNA in the absence of chemical substance (yeast gene YMR152W): 1.8 | The level of expressed mRNA in the presence of chemical substance/The level of expressed mRNA in the absence of chemical substance (yeast gene YMR203W): 3.0 | The level of expressed mRNA in the presence of chemical substance/The level of expressed mRNA in the absence of chemical substance (yeast gene YMR267W): 0.7 | The level of expressed mRNA in the presence of chemical substance/The level of expressed mRNA in the absence of chemical substance (yeast gene YNL055C): 5.5 | The level of expressed mRNA in the presence of chemical substance/The level of expressed mRNA in the absence of chemical substance (yeast gene YNL071W): 1.7 | The level of expressed mRNA in the presence of chemical substance/The level of expressed mRNA in the absence of chemical substance (yeast gene YNL073W): 0.9 | The level of expressed mRNA in the presence of chemical substance/The level of expressed mRNA in the absence of chemical substance (yeast gene YNL104C): 3.0 | The level of expressed mRNA in the presence of chemical substance/The level of expressed mRNA in the absence of chemical substance (yeast gene YNL256W): 0.6 | The level of expressed mRNA in the presence of chemical substance/The level of expressed mRNA in the absence of chemical substance (yeast gene YOL096C): 1.2 | The level of expressed mRNA in the presence of chemical substance/The level of expressed mRNA in the absence of chemical substance (yeast gene YOR020C): 1.7 | The level of expressed mRNA in the presence of chemical substance/The level of expressed mRNA in the absence of chemical substance (yeast gene YOR037W): 0.6 | The level of expressed mRNA in the presence of chemical substance/The level of expressed mRNA in the absence of chemical substance (yeast gene YOR100C): 1.6 | The level of expressed mRNA in the presence of chemical substance/The level of expressed mRNA in the absence of chemical substance (yeast gene YOR130C): 1.4 | The level of expressed mRNA in the presence of chemical substance/The level of expressed mRNA in the absence of chemical substance (yeast gene YOR142W): 3.4 | The level of expressed mRNA in the presence of chemical substance/The level of expressed mRNA in the absence of chemical substance (yeast gene YOR150W): 1.0 | The level of expressed mRNA in the presence of chemical substance/The level of expressed mRNA in the absence of chemical substance (yeast gene YOR176W): 2.7 | The level of expressed mRNA in the presence of chemical substance/The level of expressed mRNA in the absence of chemical substance (yeast gene YOR187W): 1.9 | The level of expressed mRNA in the presence of chemical substance/The level of expressed mRNA in the absence of chemical substance (yeast gene YOR316C): 1.5 | The level of expressed mRNA in the presence of chemical substance/The level of expressed mRNA in the absence of chemical substance (yeast gene YPL040C): 0.8 | The level of expressed mRNA in the presence of chemical substance/The level of expressed mRNA in the absence of chemical substance (yeast gene YPL134C): 1.6 | The level of expressed mRNA in the presence of chemical substance/The level of expressed mRNA in the absence of chemical substance (yeast gene YPL135W): 2.5 | The level of expressed mRNA in the presence of chemical substance/The level of expressed mRNA in the absence of chemical substance (yeast gene YPL215W): 1.0 | The level of expressed mRNA in the presence of chemical substance/The level of expressed mRNA in the absence of chemical substance (yeast gene YPL262W): 3.8 | The level of expressed mRNA in the presence of chemical substance/The level of expressed mRNA in the absence of chemical substance (yeast gene YPR024W): 1.3 | The level of expressed mRNA in the presence of chemical substance/The level of expressed mRNA in the absence of chemical substance (yeast gene YPR037C): 1.6 | The level of expressed mRNA in the presence of chemical substance/The level of expressed mRNA in the absence of chemical substance (yeast gene YPR047W): 0.9 | The level of expressed mRNA in the presence of chemical substance/The level of expressed mRNA in the absence of chemical substance (yeast gene YPR134W): 0.8
